In the NIST ThermoML archive (doi:10.1016/j.jct.2011.04.018):
Numbers after ± are expanded uncertainties.

Assay: activity coefficient (dimensionless); of the first substance listed, at infinite dilution; xn = mol fraction of the nth substance listed
Settings: 101 kPa, Liquid, Chromatography, x1 = 0

| Structure (SMILES) | activity coefficient (318.15 K) | activity coefficient (328.15 K) | activity coefficient (338.15 K) | activity coefficient (348.15 K) | activity coefficient (358.15 K) | activity coefficient (368.15 K) | activity coefficient (378.15 K) | activity coefficient (308.15 K) |
| --- | --- | --- | --- | --- | --- | --- | --- | --- |
| Cc1ccccc1C [1,2-dimethylbenzene] + O=S(=O)([N-]S(=O)(=O)C(F)(F)F)C(F)(F)F.OCCC[n+]1ccccc1 | 3.11 ± 0.21 | 3.12 ± 0.21 | 3.13 ± 0.21 | 3.13 ± 0.21 | 3.14 ± 0.21 | 3.15 ± 0.21 | 3.15 ± 0.21 | – |
| Cc1cccc(C)c1 [1,3-dimethylbenzene] + O=S(=O)([N-]S(=O)(=O)C(F)(F)F)C(F)(F)F.OCCC[n+]1ccccc1 | 3.58 ± 0.24 | 3.58 ± 0.24 | 3.59 ± 0.24 | 3.6 ± 0.25 | 3.6 ± 0.25 | 3.61 ± 0.25 | 3.62 ± 0.25 | – |
| Cc1ccc(C)cc1 [1,4-dimethylbenzene] + O=S(=O)([N-]S(=O)(=O)C(F)(F)F)C(F)(F)F.OCCC[n+]1ccccc1 | 3.58 ± 0.24 | 3.6 ± 0.25 | 3.61 ± 0.25 | 3.62 ± 0.25 | 3.63 ± 0.25 | 3.64 ± 0.25 | 3.65 ± 0.25 | – |
| C1COCCO1 [1,4-dioxane] + O=S(=O)([N-]S(=O)(=O)C(F)(F)F)C(F)(F)F.OCCC[n+]1ccccc1 | 0.514 ± 0.038 | 0.541 ± 0.04 | 0.568 ± 0.041 | 0.595 ± 0.042 | 0.621 ± 0.043 | 0.647 ± 0.044 | 0.672 ± 0.046 | – |
| C=CCCCCCCCC [1-decene] + O=S(=O)([N-]S(=O)(=O)C(F)(F)F)C(F)(F)F.OCCC[n+]1ccccc1 | 128 ± 9 | 115 ± 8 | 104 ± 7 | 95.2 ± 6.5 | 86.6 ± 5.9 | 79.7 ± 5.5 | – | 142 ± 10 |
| C=CCCCCC [1-heptene] + O=S(=O)([N-]S(=O)(=O)C(F)(F)F)C(F)(F)F.OCCC[n+]1ccccc1 | 33.1 ± 2.3 | 30.7 ± 2.1 | 28.5 ± 1.9 | 26.7 ± 1.8 | 25.2 ± 1.7 | 23.7 ± 1.6 | – | 35.7 ± 2.4 |
| C#CCCCCC [1-heptyne] + O=S(=O)([N-]S(=O)(=O)C(F)(F)F)C(F)(F)F.OCCC[n+]1ccccc1 | 9.81 ± 0.67 | 9.53 ± 0.65 | 9.21 ± 0.63 | 9 ± 0.61 | 8.74 ± 0.6 | 8.55 ± 0.58 | – | 10.1 ± 0.7 |
| C#CCCCC [1-hexyne] + O=S(=O)([N-]S(=O)(=O)C(F)(F)F)C(F)(F)F.OCCC[n+]1ccccc1 | 6.25 ± 0.43 | 6.13 ± 0.42 | 6 ± 0.41 | 5.91 ± 0.4 | 5.8 ± 0.4 | 5.72 ± 0.39 | – | 6.38 ± 0.43 |
| C#CCCCCCC [1-octyne] + O=S(=O)([N-]S(=O)(=O)C(F)(F)F)C(F)(F)F.OCCC[n+]1ccccc1 | 15.5 ± 1.1 | 14.9 ± 1 | 14.2 ± 1 | 13.7 ± 0.9 | 13.2 ± 0.9 | 12.7 ± 0.9 | – | 16.2 ± 1.1 |
| C=CCCC [1-pentene] + O=S(=O)([N-]S(=O)(=O)C(F)(F)F)C(F)(F)F.OCCC[n+]1ccccc1 | 13.5 ± 0.9 | 12.7 ± 0.9 | 12 ± 0.8 | 11.5 ± 0.8 | – | – | – | 14.2 ± 1 |
| CC(C)CC(C)(C)C [2,2,4-trimethylpentane] + O=S(=O)([N-]S(=O)(=O)C(F)(F)F)C(F)(F)F.OCCC[n+]1ccccc1 | 73.9 ± 5.1 | 67 ± 4.6 | 60.7 ± 4.2 | 55.7 ± 3.8 | 51.4 ± 3.5 | 47.3 ± 3.2 | – | 81.7 ± 5.6 |
| CCC(C)(C)C [2,2-dimethylbutane] + O=S(=O)([N-]S(=O)(=O)C(F)(F)F)C(F)(F)F.OCCC[n+]1ccccc1 | 37.3 ± 2.6 | 33.9 ± 2.3 | 30.9 ± 2.1 | 28.5 ± 1.9 | 26.3 ± 1.8 | – | – | 41 ± 3 |
| CCC(C)(C)OC [2-methoxy-2-methylbutane] + O=S(=O)([N-]S(=O)(=O)C(F)(F)F)C(F)(F)F.OCCC[n+]1ccccc1 | 4.45 ± 0.3 | 4.54 ± 0.31 | 4.61 ± 0.31 | 4.7 ± 0.32 | 4.77 ± 0.33 | 4.84 ± 0.33 | – | 4.37 ± 0.3 |
| COC(C)(C)C [2-methoxy-2-methylpropane] + O=S(=O)([N-]S(=O)(=O)C(F)(F)F)C(F)(F)F.OCCC[n+]1ccccc1 | 2.74 ± 0.19 | 2.83 ± 0.19 | 2.91 ± 0.2 | 3.01 ± 0.2 | 3.08 ± 0.21 | 3.18 ± 0.22 | – | 2.63 ± 0.18 |
| CCC(C)CC [3-methylpentane] + O=S(=O)([N-]S(=O)(=O)C(F)(F)F)C(F)(F)F.OCCC[n+]1ccccc1 | 40 ± 2.7 | 36.6 ± 2.5 | 33.3 ± 2.3 | 30.9 ± 2.1 | 28.5 ± 1.9 | – | – | 44 ± 3 |
| CC(=O)O [acetic acid] + O=S(=O)([N-]S(=O)(=O)C(F)(F)F)C(F)(F)F.OCCC[n+]1ccccc1 | 0.255 ± 0.03 | 0.277 ± 0.03 | 0.298 ± 0.031 | 0.32 ± 0.031 | 0.343 ± 0.032 | 0.367 ± 0.033 | 0.388 ± 0.034 | – |
| CC(C)=O [acetone] + O=S(=O)([N-]S(=O)(=O)C(F)(F)F)C(F)(F)F.OCCC[n+]1ccccc1 | 0.403 ± 0.034 | 0.421 ± 0.035 | 0.437 ± 0.035 | 0.453 ± 0.036 | 0.469 ± 0.037 | 0.484 ± 0.037 | 0.5 ± 0.038 | – |
| c1ccccc1 [benzene] + O=S(=O)([N-]S(=O)(=O)C(F)(F)F)C(F)(F)F.OCCC[n+]1ccccc1 | 1.58 ± 0.1 | 1.58 ± 0.1 | 1.59 ± 0.11 | 1.6 ± 0.11 | 1.61 ± 0.11 | 1.62 ± 0.11 | 1.62 ± 0.11 | – |
| CCCCO [butan-1-ol] + O=S(=O)([N-]S(=O)(=O)C(F)(F)F)C(F)(F)F.OCCC[n+]1ccccc1 | 2.27 ± 0.15 | 2.14 ± 0.15 | 2.02 ± 0.14 | 1.91 ± 0.13 | 1.82 ± 0.12 | 1.73 ± 0.12 | 1.67 ± 0.11 | – |
| C1CCCCCC1 [cycloheptane] + O=S(=O)([N-]S(=O)(=O)C(F)(F)F)C(F)(F)F.OCCC[n+]1ccccc1 | 32.8 ± 2.2 | 29.7 ± 2 | 26.9 ± 1.8 | 24.7 ± 1.7 | 22.9 ± 1.6 | 21.2 ± 1.4 | – | 36.3 ± 2.5 |
| C1CCCCC1 [cyclohexane] + O=S(=O)([N-]S(=O)(=O)C(F)(F)F)C(F)(F)F.OCCC[n+]1ccccc1 | 23.2 ± 1.6 | 21.1 ± 1.4 | 19.4 ± 1.3 | 17.9 ± 1.2 | 16.7 ± 1.1 | 15.5 ± 1.1 | – | 25.5 ± 1.7 |
| C1=CCCCC1 [cyclohexene] + O=S(=O)([N-]S(=O)(=O)C(F)(F)F)C(F)(F)F.OCCC[n+]1ccccc1 | 11 ± 0.8 | 10.4 ± 0.7 | 9.81 ± 0.67 | 9.31 ± 0.64 | 8.92 ± 0.61 | 8.52 ± 0.58 | – | 11.7 ± 0.8 |
| C1CCCCCCC1 [cyclooctane] + O=S(=O)([N-]S(=O)(=O)C(F)(F)F)C(F)(F)F.OCCC[n+]1ccccc1 | 46.4 ± 3.2 | 41.6 ± 2.8 | 37.3 ± 2.6 | 34 ± 2.3 | 31.3 ± 2.1 | 28.6 ± 2 | – | 51.9 ± 3.6 |
| C1CCCC1 [cyclopentane] + O=S(=O)([N-]S(=O)(=O)C(F)(F)F)C(F)(F)F.OCCC[n+]1ccccc1 | 14.6 ± 1 | 13.5 ± 0.9 | 12.5 ± 0.9 | 11.7 ± 0.8 | 11.1 ± 0.8 | 10.4 ± 0.7 | – | 15.8 ± 1.1 |
| CCCCCCCCCC [decane] + O=S(=O)([N-]S(=O)(=O)C(F)(F)F)C(F)(F)F.OCCC[n+]1ccccc1 | 284 ± 20 | 245 ± 17 | 214 ± 15 | 190 ± 13 | 168 ± 12 | 150 ± 10 | – | 327 ± 22 |
| CCOCC [diethyl ether] + O=S(=O)([N-]S(=O)(=O)C(F)(F)F)C(F)(F)F.OCCC[n+]1ccccc1 | 2.77 ± 0.19 | 2.82 ± 0.19 | 2.87 ± 0.2 | 2.91 ± 0.2 | 2.97 ± 0.2 | 3.01 ± 0.2 | – | 2.71 ± 0.18 |
| CCCOCCC [dipropyl ether] + O=S(=O)([N-]S(=O)(=O)C(F)(F)F)C(F)(F)F.OCCC[n+]1ccccc1 | 9.45 ± 0.64 | 9.28 ± 0.63 | 9.12 ± 0.62 | 8.99 ± 0.61 | 8.87 ± 0.61 | 8.75 ± 0.6 | – | 9.62 ± 0.66 |
| CCO [ethanol] + O=S(=O)([N-]S(=O)(=O)C(F)(F)F)C(F)(F)F.OCCC[n+]1ccccc1 | 1.16 ± 0.07 | 1.11 ± 0.07 | 1.06 ± 0.07 | 1.02 ± 0.06 | 0.984 ± 0.062 | 0.949 ± 0.06 | 0.919 ± 0.058 | – |
| CCc1ccccc1 [ethylbenzene] + O=S(=O)([N-]S(=O)(=O)C(F)(F)F)C(F)(F)F.OCCC[n+]1ccccc1 | 3.96 ± 0.27 | 3.93 ± 0.27 | 3.9 ± 0.27 | 3.87 ± 0.26 | 3.84 ± 0.26 | 3.82 ± 0.26 | 3.79 ± 0.26 | – |
